Measurements reported in PubChem BioAssay AID977614 (Broad Institute, 2014).
Activity calls are given as the source filed them.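 The calls were made as follows: active = parasite count per well reduced by over 3 SD from the mean, with host cell number above 80% of untreated; inactive = the rest.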

The molecules below were run on L. donovani amastigotes in THP-1 macrophages, DAPI imaging, 72 h (assay: L. donovani intracellular amastigote growth inhibitors, imaging, THP-1 host macrophages, single concentration (AID 977614);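 also: signal is the parasite per host cell ratio from DAPI stained kinetoplasts and nuclei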).
`C[C@H]1CN([C@@H](C)CO)C(=O)CCCn2nncc2CO[C@@H]1CN(C)Cc1ccc2cccnc2c1` was tested, and the AC50 was > 10 µM (inactive).
For `C/C=C/c1ccc([C@H]2[C@@H](CO)N[C@@H]2CN(CC(C)C)C(=O)c2ccccn2)cc1`, the AC50 was > 10 µM (inactive).
For `C[C@@H]1CN([C@@H](C)CO)C(=O)CCCn2nncc2CO[C@@H]1CN(C)C(=O)CCC(F)(F)F`, the AC50 was > 10 µM (inactive).
In the case of `O=C(NC[C@H]1[C@@H](c2ccccc2)[C@@H](CO)N1C(=O)C1CCC1)NC1CCCC1`, the AC50 is reported as > 10 µM (inactive).
With `C[C@H]1CN([C@@H](C)CO)C(=O)CCCn2nncc2CO[C@@H]1CN(C)C(=O)Nc1ccnc(N2CCOCC2)c1` the AC50 was > 10 µM (inactive).
`C[C@@H]1CN([C@@H](C)CO)C(=O)CCCn2nncc2CO[C@@H]1CN(C)S(=O)(=O)c1ccccc1C#N` was tested, and the AC50 was > 10 µM (inactive).
`C/C=C/c1ccc([C@H]2[C@@H](CO)N(CC3CCCC3)[C@H]2CNS(C)(=O)=O)cc1` was tested, and the AC50 was > 10 µM (inactive).
With `C[C@H]1CN([C@@H](C)CO)C(=O)CCCn2nncc2CO[C@@H]1CN(C)Cc1ccc2c(c1)OCCN2C` the AC50 was > 10 µM (inactive).
For `O=C(c1ccccc1F)N1C[C@H]2[C@@H](c3ccccc31)[C@@H](CO)N2C(=O)Nc1ccccc1`, the AC50 was > 10 µM (inactive).
For `C[C@@H]1CN([C@@H](C)CO)C(=O)CCCn2nncc2CO[C@@H]1CN(C)C(=O)c1ccc2ccn(C)c2c1`, the AC50 was > 10 µM (inactive).
With `Cc1noc(C)c1S(=O)(=O)N(C)C[C@@H]1OCc2cn(nn2)CCCC(=O)N([C@@H](C)CO)C[C@@H]1C` the AC50 was > 10 µM (inactive).
For `C[C@@H]1CN([C@H](C)CO)C(=O)CCCn2cc(nn2)CO[C@@H]1CN(C)Cc1ccccc1`, the AC50 was > 10 µM (inactive).
With `OC[C@@H]1[C@@H]2c3ccccc3NC[C@@H]2N1CC1CCOCC1` the AC50 was > 10 µM (inactive).
For `O=C(C1CCCCC1)N1[C@H](CO)[C@H]2c3ccccc3NC[C@H]21`, the AC50 was > 10 µM (inactive).
In the case of `Cc1cccc(S(=O)(=O)N2C[C@@H]3[C@H](c4ccccc42)[C@H](CO)N3CC2CCCC2)c1`, the AC50 is reported as > 10 µM (inactive).
For `COCC(=O)N1[C@@H](CO)[C@@H]2c3ccccc3N(C)C[C@@H]21`, the AC50 was > 10 µM (inactive).
`O=S(=O)(c1ccccc1)N1[C@@H]2CNc3ccccc3[C@@H]2[C@@H]1CO` was tested, and the AC50 was > 10 µM (inactive).
For `O=C(CC(F)(F)F)N1C[C@H]2[C@@H](c3ccccc31)[C@@H](CO)N2C(=O)C1CCCCC1`, the AC50 was > 10 µM (inactive).
`CC(=O)N1[C@H](CO)[C@@H](c2ccc(C3=CCCCC3)cc2)[C@@H]1CNC(=O)CN(C)C` was tested, and the AC50 was > 10 µM (inactive).
In the case of `CC(C)NC(=O)N1[C@@H](CO)[C@@H]2c3ccccc3NC[C@@H]21`, the AC50 is reported as > 10 µM (inactive).
In the case of `COCC(=O)N1C[C@H]2[C@@H](c3ccccc31)[C@@H](CO)N2C(=O)c1ccccc1F`, the AC50 is reported as > 10 µM (inactive).
`CCN(C[C@@H]1[C@H](c2ccccc2)[C@@H](CO)N1CC1CC1)C(=O)c1ccccn1` was tested, and the AC50 was > 10 µM (inactive).
`COCC(=O)N1[C@H](CNC(=O)c2ccccn2)[C@@H](c2ccccc2)[C@@H]1CO` was tested, and the AC50 was > 10 µM (inactive).
With `CN1[C@H](CO)[C@H]2c3ccccc3N(C(=O)Nc3cc(F)ccc3F)C[C@H]21` the AC50 was > 10 µM (inactive).
With `O=C(CC(F)(F)F)N1C[C@@H]2[C@H](c3ccccc31)[C@H](CO)N2CC1CCOCC1` the AC50 was > 10 µM (inactive).
With `C[C@@H]1CN([C@H](C)CO)C(=O)CCCn2nncc2CO[C@@H]1CN(C)C(=O)Nc1ccccc1C(F)(F)F` the AC50 was > 10 µM (inactive).
With `COCC(=O)NC[C@H]1[C@H](c2ccccc2)[C@@H](CO)N1C(=O)c1ccccc1` the AC50 was > 10 µM (inactive).
`O=C(C1CCOCC1)N1C[C@H]2[C@@H](c3ccccc31)[C@H](CO)N2C(=O)Nc1ccccc1F` was tested, and the AC50 was > 10 µM (inactive).
With `CNC[C@@H]1OCc2cnnn2CCCC(=O)N([C@@H](C)CO)C[C@@H]1C` the AC50 was > 10 µM (inactive).
With `CCC(=O)N1C[C@H]2[C@@H](c3ccccc31)[C@@H](CO)N2C(=O)CC1CC1` the AC50 was > 10 µM (inactive).
`C[C@@H]1CN([C@@H](C)CO)C(=O)CCCn2cc(nn2)CO[C@@H]1CN(C)C(=O)CCC(F)(F)F` was tested, and the AC50 was > 10 µM (inactive).
For `Cc1noc(C)c1S(=O)(=O)N(C)C[C@H]1OCc2cnnn2CCCC(=O)N([C@H](C)CO)C[C@H]1C`, the AC50 was > 10 µM (inactive).
For `O=C(NC[C@@H]1[C@@H](c2ccccc2)[C@H](CO)N1C(=O)Cc1ccncc1)C1CCC1`, the AC50 was > 10 µM (inactive).
`COc1ccccc1S(=O)(=O)N(C)C[C@H]1OCc2cn(nn2)CCCC(=O)N([C@@H](C)CO)C[C@@H]1C` was tested, and the AC50 was > 10 µM (inactive).
With `CCNC[C@H]1[C@@H](c2ccccc2)[C@@H](CO)N1C(=O)Cc1ccccn1` the AC50 was > 10 µM (inactive).
In the case of `O=C(c1ccncc1)N1C[C@H]2[C@@H](c3ccccc31)[C@@H](CO)N2Cc1ccccc1F`, the AC50 is reported as > 10 µM (inactive).
For `COc1ccccc1CN1[C@H](CO)[C@@H]2c3ccccc3N(C(=O)C3CCOCC3)C[C@@H]21`, the AC50 was > 10 µM (inactive).
With `O=C(C1CCC1)N1C[C@@H]2[C@H](c3ccccc31)[C@@H](CO)N2C(=O)Nc1cccc(F)c1` the AC50 was > 10 µM (inactive).
`COc1ccccc1S(=O)(=O)N(C)C[C@H]1OCc2cn(nn2)CCCC(=O)N([C@@H](C)CO)C[C@H]1C` was tested, and the AC50 was > 10 µM (inactive).
In the case of `C[C@@H]1CN([C@H](C)CO)C(=O)CCCn2nncc2CO[C@H]1CN(C)C(=O)Nc1cccc(Oc2ccccn2)c1`, the AC50 is reported as > 10 µM (inactive).
`O=C(c1ccccn1)N1C[C@@H]2[C@H](c3ccccc31)[C@@H](CO)N2C(=O)C1CCCCC1` was tested, and the AC50 was > 10 µM (inactive).
For `C[C@H]1CN([C@@H](C)CO)C(=O)CCCn2cc(nn2)CO[C@H]1CN(C)C(=O)Nc1ccc2c(c1)OCO2`, the AC50 was > 10 µM (inactive).
In the case of `COCC(=O)N1[C@@H](CO)[C@@H]2c3ccccc3N(C(=O)Nc3ccccc3Cl)C[C@@H]21`, the AC50 is reported as > 10 µM (inactive).
With `CCC(=O)NC[C@H]1N[C@H](CO)[C@@H]1c1ccc(-c2cccnc2)cc1` the AC50 was > 10 µM (inactive).
With `C[C@H]1CN([C@@H](C)CO)C(=O)CCCn2nncc2CO[C@@H]1CN(C)C(=O)c1ccc(N2CCN(C)CC2)cc1` the AC50 was > 10 µM (inactive).
For `CNC[C@@H]1OCc2cnnn2CCCC(=O)N([C@@H](C)CO)C[C@H]1C`, the AC50 was > 10 µM (inactive).
`O=C(c1cccc(F)c1)N1C[C@H]2[C@@H](c3ccccc31)[C@@H](CO)N2Cc1cocn1` was tested, and the AC50 was > 10 µM (inactive).
With `COc1ccc(CN2[C@@H](CO)[C@@H]3c4ccccc4NC[C@@H]32)cc1` the AC50 was > 10 µM (inactive).
`C[C@@H]1CN([C@H](C)CO)C(=O)CCCn2nncc2CO[C@H]1CN(C)C(=O)c1ccc(N2CCN(C)CC2)cc1` was tested, and the AC50 was > 10 µM (inactive).
In the case of `O=C(C1CCCCC1)N1[C@H](CO)[C@H]2c3ccccc3N(S(=O)(=O)c3ccccc3)C[C@H]21`, the AC50 is reported as > 10 µM (inactive).
`O=C(Nc1ccc(F)cc1)N1[C@H](CO)[C@@H]2c3ccccc3NC[C@@H]21` was tested, and the AC50 was > 10 µM (inactive).
`COc1cccc(NC(=O)N2[C@H](CO)[C@@H](c3ccccc3)[C@H]2CNCC(C)C)c1` was tested, and the AC50 was > 10 µM (inactive).
In the case of `CN(C[C@@H]1[C@H](c2ccccc2)[C@H](CO)N1Cc1ccccn1)S(C)(=O)=O`, the AC50 is reported as > 10 µM (inactive).
`CCc1csc(N2[C@H](CO)[C@H](c3ccccc3)[C@@H]2CNC)n1` was tested, and the AC50 was > 10 µM (inactive).
`CNC[C@H]1OCc2cnnn2CCCC(=O)N([C@H](C)CO)C[C@H]1C` was tested, and the AC50 was > 10 µM (inactive).
For `CC(=O)N1C[C@H]2[C@@H](c3ccccc31)[C@@H](CO)N2Cc1ccc(Cl)cc1`, the AC50 was > 10 µM (inactive).
For `O=C(C1CCOCC1)N1C[C@H]2[C@@H](c3ccccc31)[C@@H](CO)N2C(=O)Nc1ccccc1F`, the AC50 was > 10 µM (inactive).
For `C[C@@H]1CN([C@H](C)CO)C(=O)CCCn2cc(nn2)CO[C@@H]1CN(C)C(=O)CCC(F)(F)F`, the AC50 was > 10 µM (inactive).
`Cc1noc(C)c1S(=O)(=O)N(C)C[C@@H]1OCc2cnnn2CCCC(=O)N([C@H](C)CO)C[C@@H]1C` was tested, and the AC50 was > 10 µM (inactive).
With `O=C(Nc1ccc(F)cc1)N1C[C@@H]2[C@H](c3ccccc31)[C@H](CO)N2Cc1ccccc1Cl` the AC50 was > 10 µM (inactive).
In the case of `OC[C@@H]1[C@H](c2ccc(-c3ccc(F)cc3)cc2)[C@@H](CNC2CCCC2)N1CCC(F)(F)F`, the AC50 is reported as > 10 µM (inactive).
`CC(=O)N1[C@H](CN(CC(C)C)C(=O)c2ccccn2)[C@H](c2ccccc2)[C@@H]1CO` was tested, and the AC50 was > 10 µM (inactive).
`C[C@@H]1CN([C@H](C)CO)C(=O)CCCn2cc(nn2)CO[C@H]1CN(C)C(=O)Oc1ccc2ccccc2c1` was tested, and the AC50 was > 10 µM (inactive).
With `C[C@@H]1CN([C@H](C)CO)C(=O)CCCn2cc(nn2)CO[C@H]1CN(C)C(=O)Nc1cccc(C(F)(F)F)c1` the AC50 was > 10 µM (inactive).
`O=C(Nc1ccc(Cl)cc1)N1C[C@H]2[C@@H](c3ccccc31)[C@H](CO)N2CC1CCCCC1` was tested, and the AC50 was > 10 µM (inactive).
With `CCC(=O)N1[C@H](CO)[C@@H]2c3ccccc3N(S(=O)(=O)c3ccc(F)cc3)C[C@@H]21` the AC50 was > 10 µM (inactive).
In the case of `CCCC#Cc1ccc([C@H]2[C@@H](CO)N[C@@H]2CN(C(C)=O)C2CCCC2)cc1`, the AC50 is reported as > 10 µM (inactive).
In the case of `CCN(C[C@H]1[C@H](c2ccc(-c3cccnc3)cc2)[C@@H](CO)N1C(C)=O)C(C)=O`, the AC50 is reported as > 10 µM (inactive).
`CCC(=O)N1[C@H](CO)[C@H]2c3ccccc3N(C(=O)c3cnccn3)C[C@H]21` was tested, and the AC50 was > 10 µM (inactive).
`CC(=O)N1[C@H](CO)[C@H](c2ccccc2)[C@H]1CN(CC(C)C)C(=O)c1ccccn1` was tested, and the AC50 was > 10 µM (inactive).
With `O=C(NC[C@@H]1N[C@@H](CO)[C@H]1c1ccccc1)c1ccccc1F` the AC50 was > 10 µM (inactive).
`CC(=O)N1[C@H](CO)[C@H](c2ccccc2)[C@@H]1CN(CC(C)C)C(=O)c1ccccn1` was tested, and the AC50 was > 10 µM (inactive).
For `CCCC(=O)N1C[C@H]2[C@@H](c3ccccc31)[C@H](CO)N2C(=O)Nc1ccc(F)cc1`, the AC50 was > 10 µM (inactive).
For `C[C@H]1CN([C@@H](C)CO)C(=O)CCCn2cc(nn2)CO[C@@H]1CN(C)C(=O)CCC(F)(F)F`, the AC50 was > 10 µM (inactive).
For `COc1ccc(NC(=O)N2C[C@@H]3[C@H](c4ccccc42)[C@H](CO)N3Cc2ccccn2)cc1`, the AC50 was > 10 µM (inactive).
With `Cc1cccc(S(=O)(=O)N2C[C@H]3[C@@H](c4ccccc42)[C@H](CO)N3CC2CCCC2)c1` the AC50 was > 10 µM (inactive).
`C[C@@H]1CN([C@H](C)CO)C(=O)CCCn2nncc2CO[C@@H]1CN(C)S(=O)(=O)c1ccc2c(c1)OCCCO2` was tested, and the AC50 was > 10 µM (inactive).
